This is an account of results in patent US20170209434A1, “PROTEIN PHOSPHATASE 2A INHIBITORS FOR TREATING MYELODYSPLASTIC SYNDROMES” (priority 2014, published 2017).

Series [1] concerns Namalwa cells. In words: Cell cycle analysis of Namalwa cells treated with LB-100. In kind it is cell-based. The following applies: for G1 / G2/M / S / Percent G1: 24 hours. Here is the method: FIG. 1 is a bar graph showing percent of Namalwa cells in G1 arrest 24 hours after treatment with 0.1 μM, 1.0 μM or 10 μM LB-100 dissolved in DMSO (grey) or MSG (black) compared to control and vehicle.
FIG. 2 is a bar graph showing percent of Namalwa cells in G1 arrest 24 hours after treatment with 0.1 μM, 1.0 μM or 10 μM LB-100 compared to control.

Series [2] relates to Namalwa cells. In words: Apoptosis of Namalwa cells. In kind it is cell-based. The settings on record: for Percent Apoptosis: dissolved in MSG. As for the experimental part:
FIG. 3 is a bar graph showing percentage of Namalwa cells undergoing apoptosis after treatment with 0.1 μM, 1.0 μM or 10 μM LB-100 dissolved in DMSO (grey) or MSG (black) compared to control and vehicle.
FIGS. 4A to 4D are a series of flow cytometry plots showing percentage of Namalwa cells undergoing apoptosis after treatment with control (FIG. 4A), 0.1 μM (FIG. 4B), 1.0 μM (FIG. 4C), or 10 μM (FIG. 4D) LB-100.

Series [3] has as its system Non-del(5q) patient BM MNCs. Nature of the series: Apoptosis of non-del(5q) patient BM MNCs. Type of series: cell-based. The following applies: FIG. 5, 0.1-10 μM.
Series [4] concerns del(5q) patient BM MNCs. Nature of the series: Apoptosis of del(5q) patient BM MNCs. Type of series: cell-based. Here is the method:
FIG. 6 is a bar graph showing percentage of primary BM MNCs from a Del(5q) patient undergoing apoptosis after treatment with 0.1 μM, 1.0 μM, or 10 μM lenalidomide (grey) or 0.1 μM, 1.0 μM, or 10 μM LB-100 (black), compared to a control.

Series [5] deals with HL60 cells. Nature of the series: MTT assay, HL60 cell proliferation. In kind it is cell-based. The settings on record: 72 hours, significant difference at 1 μM. Here is the method: (§1) FIG. 7A is a graph showing proliferation of HL60 cells 72 hours after treatment with 0.001 μM, 0.01 μM, 0.1 μM, 1.0 μM, 10 μM, or 100 μM LB-100 (grey) or 0.001 μM, 0.01 μM, 0.1 μM, 1.0 μM, 10 μM, or 100 μM lenalidomide (black), compared to control or vehicle. FIGS. 7B to 7C are graphs showing proliferation of Namalwa cells 72 hours after treatment with 0.001 μM, 0.01 μM, 0.1 μM, 1.0 μM, 10 μM, or 100 μM LB-100 (♦), 0.001 μM, 0.01 μM, 0.1 μM, 1.0 μM, 10 μM, or 100 μM lenalidomide (▪), or 0.001 μM, 0.01 μM, 0.1 μM, 1.0 μM, 10 μM, or 100 μM cantharidin (▴), compared to control or vehicle.
(§2) HL60 cells and U937 cells were compared (FIGS. 8A and 8B).

For series [6], the system named is Namalwa cells. In words: MTT assay, Namalwa cell proliferation. In kind it is cell-based. The settings on record: 72 hours. Here is the method:
as §1, §2

Series [7] has as its system del(5q) MDS. Nature of the series: Additional studies of efficacy in del(5q) MDS (Example 3). In kind it is in vivo. The following applies: subject afflicted with del(5q) MDS. Here is the method: (§3) Additional studies, similar to the aforementioned Phase I design, are conducted to evaluate the efficacy of LB-100, alone or in combination with lenalidomide, in patients with del(5q) MDS or non-del(5q) MDS.
An amount of LB-100 is administered to a subject afflicted with del(5q) MDS. […] An amount of LB-100 in combination with lenalidomide is administered to a subject afflicted with del(5q) MDS.

In series [8] the test system is non-del(5q) MDS. In words: Additional studies of efficacy in non-del(5q) MDS (Example 3). In kind it is in vivo. The settings on record: subject afflicted with non-del(5q) MDS. As for the experimental part: as §3
An amount of LB-100 is administered to a subject afflicted with non-del(5q) MDS. […] An amount of LB-100 in combination with lenalidomide is administered to a subject afflicted with non-del(5q) MDS.

For series [9], the system named is MDS that is resistant to lenalidomide. Nature of the series: Additional studies of efficacy in lenalidomide-resistant MDS (Example 3). In kind it is in vivo. As for the experimental part: as §3
The target of series [10] is protein phosphatase 2A (Homo sapiens, UniProt P67775). The following applies: cited from earlier work.
The subject of series [11] is del(5q) MDS patients. The settings on record: cited from earlier work.
Series [12] relates to non-del (5q) MDS. The settings on record: cited from earlier work.
Series [13] deals with protein phosphatase 1. The settings on record: cited from earlier work.

protein phosphatase 2A, sequence (P67775 whole entry): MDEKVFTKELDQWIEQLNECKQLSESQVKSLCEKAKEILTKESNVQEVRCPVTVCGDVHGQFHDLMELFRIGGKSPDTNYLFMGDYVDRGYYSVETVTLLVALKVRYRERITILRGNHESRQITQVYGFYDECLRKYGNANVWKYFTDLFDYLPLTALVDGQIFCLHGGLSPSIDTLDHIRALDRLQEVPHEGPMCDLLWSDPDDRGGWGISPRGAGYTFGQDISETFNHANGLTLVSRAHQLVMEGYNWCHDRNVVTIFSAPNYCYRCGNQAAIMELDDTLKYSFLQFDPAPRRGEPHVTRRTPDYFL

Take `CN1CCN(C(=O)C2C(C(=O)O)[C@H]3CC[C@@H]2O3)CC1` (stereo partly drawn) [LB100]: the G1 in series [1] (0.1 μM, dissolved in DMSO) came out at 17.73%; in series [1] (0.1 uM, dissolved in MSG), 18.69%; in series [1] (1.0 μM, dissolved in DMSO), 18.38%; in [1] (1.0 uM, dissolved in MSG) it was 41.48%; in series [1] (10 μM, dissolved in DMSO), 28.97%; in [1] (10 uM, dissolved in MSG), 46.34%. Also, the G2/M in series [1] (0.1 μM, dissolved in DMSO) is listed as 16.51; in series [1] (0.1 uM, dissolved in MSG), 17.93; in series [1] (1.0 μM, dissolved in DMSO), 18.22; in series [1] (1.0 uM, dissolved in MSG), 6.96; in [1] (10 μM, dissolved in DMSO) it was 8.9; in [1] (10 uM, dissolved in MSG) it was 8.5. The G2/M in series [1] (Table 2, 0.1 μM) is on record as 12.06%; in series [1] (Table 2, 1.0 μM), 20.8%; in series [1] (Table 2, 10 μM) it was 6.13%. In addition, the S stood at 65.76 in series [1] (0.1 μM, dissolved in DMSO); 63.37 in series [1] (0.1 uM, dissolved in MSG); 63.41 in [1] (1.0 μM, dissolved in DMSO); 51.56 in [1] (1.0 uM, dissolved in MSG); 62.13 in [1] (10 μM, dissolved in DMSO); 45.15 in [1] (10 uM, dissolved in MSG). Moreover, the S is recorded as 63.93% in series [1] (Table 2, 0.1 μM); 47.85% in [1] (Table 2, 1.0 μM); 42.69% in series [1] (Table 2, 10 μM). Besides, the “Percent G1” value is given as 24.01% in [1] (Table 2, 0.1 μM); 31.35% in [1] (Table 2, 1.0 μM); 51.18% in series [1] (Table 2, 10 μM). Also, the “G1 arrest, dose dependence (in words)” value in series [1] (Table 2 and FIG. 2, 0.1-10 μM) is given as “led to G1 arrest in a dose-dependent fashion”. Moreover, the “G1 arrest (in words)” value is listed as “led to G1 arrest” in series [1] (at 10 μM in DMSO); “led to G1 arrest” in series [1] (at 1 and 10 μM in MSG). Further, the entries for the “Percent Apoptosis” value in series [2] (0.1 μM), in series [2] (1.0 μM) and in series [2] (10 μM) were 6.18%, 6.5% and 55.8%, respectively. Also, the “Apoptosis (in words)” value in series [2] (at 10 μM when dissolved in MSG) is recorded as “led to apoptosis”; in series [3], “did not lead to apoptosis”; in series [4] (at 1 μM), “mild increase in apoptosis”. In series [4] (FIG. 6, 0.1-10 μM), the “Apoptosis, dose dependence (in words)” value is listed as “induced apoptosis in a dose dependent fashion”. Further, the “Cytotoxicity compared with lenalidomide (in words)” value in [4] (at 10 μM) is “more cytotoxic than lenalidomide”. For the same compound, the “Proliferation in comparison to treatment with lenalidomide (in words)” value in series [5] is given as “significant decreased proliferation”. In addition, the “Proliferation in comparison to control (in words)” value in series [6] was “significant decrease in proliferation”. Moreover, in [7], the “Efficacy in treating del(5q) MDS (in words)” value is reported as “effective to treat”. For the same compound, the “Efficacy in treating non-del(5q) MDS (in words)” value in series [8] is on record as “effective to treat”. The “Efficacy in treating MDS resistant to lenalidomide (in words)” value in series [9] is reported as “effective to treat”. In [10], the “PP2A inhibition (in words)” value is given as “greater potency than lenalidomide”.

`Nc1cccc2c1CN(C1CCC(=O)NC1=O)C2=O` (stereo not drawn) [Lenalidomide, lenalidomide]: the “transfusion independence (TI), % of patients” value is on record as 67% in [11] (lower risk MDS patients with del(5q)) and 26% in series [12]. For the same compound, the “duration of response, median” value in [11] (patients with del5q MDS) is 2.5 years.

Turning to `C=C1[C@@H](O)[C@@H]2O[C@]3(CC[C@H](/C=C/[C@@H](C)[C@@H]4CC(C)=C[C@@]5(O[C@H](C[C@@](C)(O)C(=O)O)CC[C@H]5O)O4)O3)CC[C@H]2O[C@@H]1[C@@H](O)C[C@H](C)[C@H]1O[C@@]2(CCCCO2)CC[C@H]1C` [Okadaic acid, 9,10-Deepithio-9,10-didehydroacanthifolicin], the IC50 in series [13] is 3 to 15 nM. Further, in series [10], the IC50 was 0.1 to 1 nM; the “Selectivity over PP2B, PP2C and a range of other phosphatases (in words)” value is listed as “highly selective”.

As to `C[C@@]12C(=O)OC(=O)[C@]1(C)[C@H]1CC[C@@H]2O1` [cantharidin], the “PP2A inhibition (in words)” value in [10] was “potent and selective inhibitor of PP2A”.
